According to US20170208799A1, “SYNERGISTIC ANTIMICROBIAL COMPOSITION” (Dow Global Technologies LLC, priority 2014, published 2017):

What was measured:
Assay type in all cases: cell-based
[1] = test system: Field isolate, Acid Producing bacteria (APB); experiment: Synergy test in 96 well microtiter plate against anaerobic acid producing bacteria; settings: end point, Environmental isolate APB, 24 hours, 32° C.; for Aqucar TN-50 (ppm THNM) - QA: THNM alone
Protocol: The synergism of the biocides combination of the present invention was determined using the method described by Kull, F. C, et al. in Applied Microbiology 9:538-541 (1961). […] If end point could not be established, the highest concentration of biocide tested will be used as the end point for the calculation and the SI will be recorded in “less than or <” values. […] The type of microorganisms used for the test inoculums, the matrix to support optimum microbial growth during the test period and the medium used to enumerate the microorganisms after specified contact time are summarized in Table 2. Mineral salts medium (MSM No Nutrients). The medium contains (in mg/l) the following components: FeCl3.6H2O (1); CaCl2.2H2O (10); MgSO4.7H2O (22.5); (NH4)2SO4 (40); KH2PO4 (10); and K2HPO4 (25.5). After all components are added to deionized water, the pH of the medium is adjusted to 7.5 before use. [table] Synergy tests of THNM alone and in combination with a second biocide against the different test microorganisms were conducted using standard 96 well microtiter plate assays. The test was carried out by adding 500 uL of matrix, 50 μl of tested organism and 50 μl of each biocide into wells of the microtiter plate. The final biocides and test inoculum concentrations in each well were established based on this total volume. For each experiment, the final concentration of the test organisms was in the range of 10^6 to 10^7 cfu/ml. The highest concentration of THNM and second biocide used in this synergy study was 250 and 100 or 50 ppm (depending on the efficacy of the active), respectively. Eight 2-fold dilutions of each biocide were prepared using an automated liquid handling system. The first biocide was added into the well plate horizontally and the second biocide is added after rotating the plate 90 degrees. Columns nine and ten were reserved for each individual biocide to be tested at each concentration level to achieve at least 4-log bacterial kill or 2-log bacterial count (defined as end point) for synergy index calculation. In case the end point was not achieved, the highest biocide concentration tested was used for synergy index calculation. Wells in Column 11 were used as positive controls; they contained only the media and the test organism. The plates were incubated at 25° C. for aerobic bacteria and 32° C. for anaerobic bacteria. Enumeration was performed 24 hours contact time by employing the MPN method. Numbers of surviving bacteria were determined by removing 20 uL of the cell suspension from each well and adding it into 180 ul of enumeration media (i.e., resazurin TSB plates) then serially dilute in a 96-well block. Plates were incubated for 48 hours or until growth is observed in the control wells.

[2] = test system: Desulfuvibrio longus (D. longus); experiment: Synergy test in 96 well microtiter plate against anaerobic sulfate reducing bacteria; settings: end point, 32° C.; for Aqucar TN-50 (ppm THNM) - QA: THNM alone
Protocol: The synergism of the biocides combination of the present invention was determined using the method described by Kull, F. C, et al. in Applied Microbiology 9:538-541 (1961). […] If end point could not be established, the highest concentration of biocide tested will be used as the end point for the calculation and the SI will be recorded in “less than or <” values. […] The type of microorganisms used for the test inoculums, the matrix to support optimum microbial growth during the test period and the medium used to enumerate the microorganisms after specified contact time are summarized in Table 2. SNF (per liter of deionized water): NaCl, 3.12 gm; NaHCO3 0.131 gm; Na2SO4 0.17 gm; 1% KCl Solution (in water) 4.77 g; 1% CaCl2 Solution (in water) 7.2 gm; 1% MgSO4 Solution (in water) 5.45 gm; 1% Na2CO3 Solution (in water) 4.39 gm. Adjust the pH to 7 before use. Modified Baar's medium (MB): MgSO4, 2 g/l; sodium citrate, 5 g/l; CaSO4, 1 g/l; NH4Cl, g/l; K2HPO4, 0.5 g/l; sodium lactate, 3.5 g/l; yeast extract, 1 g/l; Sodium thioglycolate 0. g/l. Fe(NH4)2(SO4)2 1 g/l, deionized water. Adjust the pH to 7.5 before sodium thioglycolate is added. [table] Synergy tests of THNM alone and in combination with a second biocide against the different test microorganisms were conducted using standard 96 well microtiter plate assays. The test was carried out by adding 500 uL of matrix, 50 μl of tested organism and 50 μl of each biocide into wells of the microtiter plate. The final biocides and test inoculum concentrations in each well were established based on this total volume. For each experiment, the final concentration of the test organisms was in the range of 10^6 to 10^7 cfu/ml. The highest concentration of THNM and second biocide used in this synergy study was 250 and 100 or 50 ppm (depending on the efficacy of the active), respectively. Eight 2-fold dilutions of each biocide were prepared using an automated liquid handling system. The first biocide was added into the well plate horizontally and the second biocide is added after rotating the plate 90 degrees. Columns nine and ten were reserved for each individual biocide to be tested at each concentration level to achieve at least 4-log bacterial kill or 2-log bacterial count (defined as end point) for synergy index calculation. In case the end point was not achieved, the highest biocide concentration tested was used for synergy index calculation. Wells in Column 11 were used as positive controls; they contained only the media and the test organism. The plates were incubated at 25° C. for aerobic bacteria and 32° C. for anaerobic bacteria. Enumeration was performed 24 hours contact time by employing the MPN method. Numbers of surviving bacteria were determined by removing 20 uL of the cell suspension from each well and adding it into 180 ul of enumeration media (i.e., resazurin TSB plates) then serially dilute in a 96-well block. Plates were incubated for 48 hours or until growth is observed in the control wells.

[3] = test system: Aerobic bacteria: Klebsiella pneumoniae (ATCC 8308), Bacillus subtilis (ATCC 8473), Pseudomonas aeruginosa (ATCC 15442), Staphylococcus aureus (ATCC 6538); experiment: Synergy test in 96 well microtiter plate against aerobic bacteria; settings: end point, 24 hours; for Aqucar TN-50 (ppm THNM) - QA: THNM alone
Protocol: The synergism of the biocides combination of the present invention was determined using the method described by Kull, F. C, et al. in Applied Microbiology 9:538-541 (1961). […] If end point could not be established, the highest concentration of biocide tested will be used as the end point for the calculation and the SI will be recorded in “less than or <” values. […] The type of microorganisms used for the test inoculums, the matrix to support optimum microbial growth during the test period and the medium used to enumerate the microorganisms after specified contact time are summarized in Table 2. Mineral salts medium (MSM). The medium contains (in mg/l) the following components: FeCl3.6H2O (1); CaCl2.2H2O (10); MgSO4.7H2O (22.5); (NH4)2SO4 (40); KH2PO4 (10); K2HPO4 (25.5); Yeast Extract (10); and glucose (100). After all components are added to deionized water, the pH of the medium is adjusted to 7.5 before use. [table] Synergy tests of THNM alone and in combination with a second biocide against the different test microorganisms were conducted using standard 96 well microtiter plate assays. The test was carried out by adding 500 uL of matrix, 50 μl of tested organism and 50 μl of each biocide into wells of the microtiter plate. The final biocides and test inoculum concentrations in each well were established based on this total volume. For each experiment, the final concentration of the test organisms was in the range of 10^6 to 10^7 cfu/ml. The highest concentration of THNM and second biocide used in this synergy study was 250 and 100 or 50 ppm (depending on the efficacy of the active), respectively. Eight 2-fold dilutions of each biocide were prepared using an automated liquid handling system. The first biocide was added into the well plate horizontally and the second biocide is added after rotating the plate 90 degrees. Columns nine and ten were reserved for each individual biocide to be tested at each concentration level to achieve at least 4-log bacterial kill or 2-log bacterial count (defined as end point) for synergy index calculation. In case the end point was not achieved, the highest biocide concentration tested was used for synergy index calculation. Wells in Column 11 were used as positive controls; they contained only the media and the test organism. The plates were incubated at 25° C. for aerobic bacteria and 32° C. for anaerobic bacteria. Enumeration was performed 24 hours contact time by employing the MPN method. Numbers of surviving bacteria were determined by removing 20 uL of the cell suspension from each well and adding it into 180 ul of enumeration media (i.e., resazurin TSB plates) then serially dilute in a 96-well block. Plates were incubated for 48 hours or until growth is observed in the control wells.

O=[N+]([O-])C(CO)(CO)CO [THNM, Tris(hydroxymethyl)nitromethane]
Aqucar TN-50 (ppm THNM) - QA ([1]; Table 11): >250 ppm
Aqucar TN-50 (ppm THNM) - QA ([1]; Table 12): >250 ppm
Aqucar TN-50 (ppm THNM) - QA ([1]; Table 13): >250 ppm
Aqucar TN-50 (ppm THNM) - QA ([1]; Table 14): >250 ppm
Aqucar TN-50 (ppm THNM) - QA ([2]; Table 7, 24 hours): 250.00 ppm
Aqucar TN-50 (ppm THNM) - QA ([2]; Table 8, 24 hours): 250.00 ppm
Aqucar TN-50 (ppm THNM) - QA ([2]; Table 9, 24 hours): 250.00 ppm
Aqucar TN-50 (ppm THNM) - QA ([2]; Table 10, 24 hours): 250.00 ppm
Aqucar TN-50 (ppm THNM) - QA ([3]; Table 3, aerobic bacteria, 25° C.): >250 ppm
Aqucar TN-50 (ppm THNM) - QA ([3]; Table 4, aerobic bacteria, 25° C.): >250 ppm
Aqucar TN-50 (ppm THNM) - QA ([3]; Table 5, aerobic bacteria, 25° C.): >250 ppm
Aqucar TN-50 (ppm THNM) - QA ([3]; Table 6): >250 ppm

Benzalkonium chloride (benzyl-C8-18-alkyldimethyl, chlorides) [BKC]
BKC (ppm ADBAC) - QB ([1]; BKC alone): 12.50 ppm
BKC (ppm ADBAC) - QB ([2]; BKC alone, 24 hours): 3.13 ppm
Benzalkonium Chloride (ppm BKC) - QB ([3]; BKC alone, aerobic bacteria, 25° C.): >50 ppm

N-alkyl (50% C14, 40% C12, 10% C16) dimethylbenzyl ammonium Chloride [ADBAC]
Maquat MC1412 (ppm ADBAC) - QB ([1]; ADBAC alone): 12.5 ppm
Maquat MC1412 (ppm ADBAC) - QB ([2]; ADBAC alone, 24 hours): 6.25 ppm
Maquat MC1412 (ppm ADBAC) - QB ([3]; ADBAC alone, aerobic bacteria, 25° C.): >50 ppm
